The values that follow are results of earlier work, collected in patent publication US20140186456A1, “Tripartite Bioactive Composition Providing Anti-Oxidant and Anti-Inflammatory Effects with Immune System and Stem Cell Production Enhancement” (priority 2011, published 2014).

For this series, the system named is organisms and animal species.

Consider `Oc1ccc(/C=C/c2cc(O)cc(O)c2)cc1` [resveratrol, 3,5,4′-trihydroxy-trans-stilbene], for which the increase of lifespan was 20-40%.
